Assay results published in patent publication US5891877A, “Pharmaceutical compounds” (Xenova Limited, priority 1996, dated 1999).
Counter-ions that a name gives are not always drawn.

Columns and labels:
PAI-1 = PAI-1 (Homo sapiens, UniProt P05121); assay: PAI-1 inhibition in the S2251 chromogenic substrate assay (PAI functional assay); type: biochemical; conditions: Table 1, second part; for inhibition at 20 µM: read-out: INHIBITION OF PAI-1 (degree of inhibition); for IC50: PAI-1, S2251 assay; for inhibition at 20 µM / INHIBITION OF PAI-1 (degree of inhibition): 20 μM; for INHIBITION OF PAI-1 (degree of inhibition): unit assumed
PAI-1, sequence (P05121 24-402): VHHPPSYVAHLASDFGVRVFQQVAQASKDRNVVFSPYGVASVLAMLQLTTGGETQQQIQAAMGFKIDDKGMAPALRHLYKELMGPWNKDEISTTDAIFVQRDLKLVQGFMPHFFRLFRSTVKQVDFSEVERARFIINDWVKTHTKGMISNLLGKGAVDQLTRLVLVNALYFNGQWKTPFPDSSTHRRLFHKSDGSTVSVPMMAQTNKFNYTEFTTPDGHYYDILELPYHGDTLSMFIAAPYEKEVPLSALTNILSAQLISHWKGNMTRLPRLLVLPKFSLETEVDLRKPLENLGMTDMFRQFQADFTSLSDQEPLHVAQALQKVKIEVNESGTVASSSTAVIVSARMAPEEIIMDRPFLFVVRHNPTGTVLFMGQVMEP
Summary of the method: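 Read-out is p-nitroaniline absorbance at 405 nm from plasmin cleavage of S2251. PAI-1 is first incubated with test compound before entering the tPA assay, where uninhibited tPA generates plasmin from plasminogen.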

[1] = tested on: cytotoxicity of vincristine; conditions: J. Antibiotics vol XLIII No. 8, 1018-1020; cited from earlier work

Row | Structure (SMILES) | inhibition at 20 µM (PAI-1) [%] | IC50 (PAI-1) [µM] | INHIBITION OF PAI-1 (degree of inhibition) (PAI-1) [%] | utility as potentiators of the cytotoxicity of vincristine [1]
1 | CN(C)CCCCCCOc1ccc(/C=c2\[nH]c(=O)/c(=C/c3ccccc3)[nH]c2=O)s1 [Compound 5389, (3Z,6Z)-6-Benzylidene-3-(5-(6-dimethylaminohexyloxy)-2-thienylmethylene)-2,5-piperazinedione] | 55 | 2.5 | – | –
2 | CN(C)CCCCCCOc1ccc(/C=c2\[nH]c(=O)/c(=C/c3ccccc3)[nH]c2=O)s1 [Compound 5389.HCl] | – | – | 57 | –
3 | O=C(NCCN1CCc2ccccc2C1)c1ccc(/C=c2\[nH]c(=O)/c(=C/c3ccccc3)[nH]c2=O)cc1 [Compound 5391, N-(2-(1,2,3,4-Tetrahydro-2-isoquinolyl)ethyl)-4-((3Z,6Z)-6-benzylidene-2,5-dioxo-3-piperazinylidene)methylbenzamide] | – | 6.5 | 64 | –
4 | O=C(NCCN1CCc2ccccc2C1)c1ccc(/C=c2\[nH]c(=O)/c(=C/c3ccccc3)[nH]c2=O)cc1 [Compound 5391.HCl] | – | 3.5 | 100 | –
5 | COc1cc2c(cc1OC)CN(CCc1ccc(NC(=O)c3ccc(/C=c4\[nH]c(=O)/c(=C/c5ccccc5)[nH]c4=O)cc3)cc1)CC2 [Compound 5393.HCl] | – | 20 | 58 | –
6 | COc1cc2c(cc1OC)CN(CCc1ccc(NC(=O)c3ccc(/C=c4\[nH]c(=O)/c(=C/c5ccccc5)[nH]c4=O)cc3)cc1)CC2 [Compound 5393] | 76 | 14 | – | –
7 | O=C(NCCCN1CCc2ccccc2C1)c1ccc(/C=c2\[nH]c(=O)/c(=C/c3ccccc3)[nH]c2=O)cc1 [Compound 5394, N-(3-(1,2,3,4-Tetrahydro-2-isoquinolyl)propyl)-4-((3Z,6Z)-6-benzylidene-2,5-dioxo-3-piperazinylidene)methylbenzamide] | 59 | 16 | – | –
8 | O=C(NCCCN1CCc2ccccc2C1)c1ccc(/C=c2\[nH]c(=O)/c(=C/c3ccccc3)[nH]c2=O)cc1 [Compound 5394.HCl] | – | 17 | 62 | –
9 | CN(C)CCCOc1ccc(/C=c2\[nH]c(=O)/c(=C/c3ccc(C(=O)NCCCCN4CCc5ccccc5C4)cc3)[nH]c2=O)cc1 [Compound 5397, N-(4-(1,2,3,4-Tetrahydro-2-isoquinolyl)butyl)-4-((3Z,6Z)-6-(4-(3-dimethylaminopropoxy)benzylidene)-2,5-dioxo-3-piperazinylidene)methylbenzamide] | – | – | 42 | –
10 | CN(C)CCCOc1ccc(/C=c2\[nH]c(=O)/c(=C/c3ccc(C(=O)NCCCCN4CCc5ccccc5C4)cc3)[nH]c2=O)cc1 [Compound 5397.HCl] | – | – | 21 | –
11 | COc1cc2c(cc1OC)CN(CCc1ccc(NC(=O)c3ccc(/C=c4\[nH]c(=O)/c(=C/c5ccc([N+](=O)[O-])cc5)[nH]c4=O)cc3)cc1)CC2 [Compound 5402] | 37 | – | – | –
12 | Cn1c(=O)/c(=C/c2ccccc2)[nH]c(=O)/c1=C/c1ccccc1 [piperafizine A] | – | – | – | potentiators of the cytotoxicity of vincristine
13 | O=c1[nH]/c(=C\c2ccccc2)c(=O)[nH]/c1=C\c1ccccc1 [piperafizine B] | – | – | – | potentiators of the cytotoxicity of vincristine
